# Measured values as given in PMC4073510, “Identification of natural antimicrobial agents to treat dengue infection: In vitro analysis of latarcin peptide activity against dengue virus” (BMC Microbiology, 2014).
# Where two headings read alike, the source gives them in different places. No end group written: not given here.
# Experiments:
# [1] = tested on: dengue protease NS2B-NS3pro; conditions: compared to the other standard serine protease inhibitors; cited from earlier work
# From the text: Previous studies reported various inhibitors against dengue protease, including standard serine protease inhibitors, substrate based inhibitors, and non-substrate based inhibitors.
# [2] = tested on: DENV2; test: Dose-response assay, viral RNA by one-step qRT-PCR; type: cell-based, Dengue virus serotype-2 (DENV2); conditions: HepG2 infected with DENV2, MOI 2, peptide 0-80 μM added after infection, quadruplicate experiments, ± SD
# Protocol: This assay was performed to evaluate the 50% effective concentration (EC50) of the Ltc 1 peptide against DENV2. HepG2 cells were grown in six-well microplates (1.5 × 10^6 cells/well) for 24 h in quadruplicate experiments. The cell culture media were removed and the cells were washed three times with PBS. Then, fresh medium containing the virus supernatant was added at MOI of 2, followed by incubation for 1 h with gentle shaking every 15 min. The viral residues were removed by washing with PBS, and serial dilutions of the Ltc 1 peptide (0, 2.5, 5, 10, 20, 40, 80 μM) were added. […] The cell supernatants were collected and stored at -80°C for viral load determination using viral RNA and were quantified using one step qReal time-PCR.
# The DENV2 copy number was quantified in the culture supernatants using one-step quantitative real-time PCR. Known copies of the viral RNA were 10-fold serially diluted to generate a standard curve. The viral RNA was extracted using the QIAmp viral RNAmini kit (QIAGEN, Germany), and the qRT-PCR was performed using a SYBR Green Master Kit (Qiagen, Germany). Triplicate reactions were performed for each sample, and a no template control was included as a negative control. Absolute quantification was performed using an ABI7500 machine (Applied Biosystems, Foster City, CA). The results were analysed using Sequence Detection Software Version 1.3 (Applied Biosystems, Foster City, CA). The percentage of viral inhibition (%) was calculated as follows: 100 – (viral copy number of treated cells/viral copy number of untreated cells) × 100.
# [3] = tested on: Vero cells; test: Cytotoxicity, Non-Radioactive Cell Proliferation assay; type: cell-based; conditions: Vero cells (method), 72 h
# Protocol: The cytotoxicity of the Ltc 1 peptides was evaluated by determining the maximal non-toxic dose (MNTD) and the 50% cytotoxic concentration (CC50) of the cells using the Non-Radioactive Cell Proliferation assay (Promega, USA) according to the manufacturer’s instructions. […] Vero cells were seeded at 1×10^4 cells/well in triplicate under optimal conditions (37°C, 5% CO2 in a humidified incubator) in 96-well plates with blank controls (media only) and cell controls (cells only). After an overnight incubation, the cells were treated with increasing concentrations of Ltc 1 peptide (0, 4, 8, 16, 32, 64 and 120 μM) with DMEM medium supplemented with 2% FBS and the cell culture was analysed after 72 h. The percentage of cell viability was calculated as follows: […] (absorbance of treated cells/absorbance of untreated cells) × 100. The MNTD and CC50 values were calculated from the dose-response curves.
# [4] = cited from earlier work
# From the text: Natural antimicrobial peptides (AMPs) are produced in the majority of living organisms as protection against various pathogens, including viruses. […] Therefore, the objective of this study was to identify and characterise the inhibitory potential of the latarcin peptide (Ltc 1, […]) against dengue virus replication in human cells. Ltc 1 is one of approximately seven latarcin peptides, which are produced in the venom gland of Lachesana tarab ...
# [5] = tested on: HepG2 cells; test: Real Time Cell Proliferation Assay (RTCA, xCELLigence); type: cell-based, human
# Protocol: This assay was performed to test the real time effects of the Ltc 1 peptide on cell viability. Cell proliferation was measured using the xCELLigence Real-Time Cellular Analysis (RTCA) system (Roche, Germany) as described previously. Cell viability and growth were monitored continuously after applying increasing concentrations of the Ltc 1 peptide (0, 12.5, 25, 50, 100, 150, 200, 250 μM). Briefly, the background measurements were recorded after adding 100 μl culture medium to the wells. Next, the cells were seeded at a density of 1 × 10^4 cell/well in a 16-well plate with electrodes for 18 h to allow the cells to grow to log phase. The cells were treated with different concentrations of peptide dissolved in cell culture medium and continuously monitored for up to 100 h. The cell sensor impedance was expressed as an arbitrary unit named the cell index. The cell index was recorded every 5 minutes using a RTCA analyser. To eliminate variation between the wells, the cell index values were normalised to the value at the beginning of the treatment.
# [6] = tested on: mammalian cells; conditions: cited from earlier work
# [7] = target: T1, dengue NS2B-NS3pro (DENV2 serine protease, recombinant single chain NS2B (G4-T-G4) NS3pro) (Dengue virus type 2, UniProt P14340); test: Dengue NS2B-NS3 protease (NS2B-NS3pro) assay; type: biochemical, Dengue virus serotype-2 (DENV2); conditions: 2 μM NS2B-NS3pro, 100 μM Boc-Gly-Arg-Arg-AMC, pH 8.5, 200 mM Tris-HCl, 30 min pre-incubation + 30 min with substrate, fluorescence ex 350/em 440 nm, triplicate, repeated twice, ± SD, read-out: IC50 (inhibitory concentration of 50% of enzyme activity)
# T1 construct: 1394–1440 in DENV2 polyprotein; 1476–1660 in DENV2 polyprotein; made in house; host or cells: E. coli
# T1 sequence (P14340 1476-1660): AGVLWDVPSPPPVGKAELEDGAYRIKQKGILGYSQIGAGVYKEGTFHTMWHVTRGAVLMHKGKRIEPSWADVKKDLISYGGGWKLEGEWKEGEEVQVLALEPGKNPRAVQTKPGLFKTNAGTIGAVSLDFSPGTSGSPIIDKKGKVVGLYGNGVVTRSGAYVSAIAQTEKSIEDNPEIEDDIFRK
# T1 sequence (P14340 1394-1440): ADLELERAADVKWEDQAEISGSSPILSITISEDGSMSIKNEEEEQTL
# Protocol: The NS2B-NS3pro assay was performed to examine whether the Ltc 1 peptide inhibits the DENV2 serine protease. Briefly, a single chain NS2B (G4-T-G4) NS3pro was produced as a recombinant protein in E. coli as previously described. The end point reaction mixture was performed in black 96-well plates, which contained 2 μM recombinant NS2B-NS3pro, 100 μM fluorogenic peptide substrate (Boc-Gly-Arg-Arg-AMC) and varying concentrations of the Ltc 1 peptide (0.1 to 40 μM) buffered at pH 8.5 with 200 mM Tris-HCl in a total volume of 200 μl. The reaction mixtures without peptide, substrate with the peptides, enzyme and different concentrations of the peptides were used as controls. […] Measurements were performed in triplicate using a Tecan Infinite M200 Pro fluorescence spectrophotometer (Tecan Group Ltd., Switzerland). […] The fluorescence values obtained with the no-inhibitor control (0.0 μM peptide) were set at 100%, and those in the presence of peptide were calculated as a percentage of the control using non-linear regression in GraphPad Prism (version 5.01) software. The IC50 was calculated from nonlinear regression fitting of the signal vs. concentration data points to the standard dose–response equation Y = Bottom + (Top - Bottom)/(1 + 10^^((X - LogIC50))). […] The inhibition percentage was calculated using the following formula: […]
Substance,inhibitory effect against the dengue protease [1],EC50 ([2]; 24 h),EC50 ([2]; 48 h),EC50 ([2]; 72 h),cell viability ([3]; 25 μM peptide),"CC50 (50% cytotoxic concentration) ([3]; 0-120 μM peptide, DMEM 2% FBS, 37°C, triplicate, ± SD)",haemolytic activity [4],"effect on cell proliferation ([5]; 25 μM, 110 h, cell index similar to untreated control cells)","effect on cell proliferation ([5]; 50 μM, after 66 h of incubation, HepG2 cells)","maximal non-toxic dose (MNTD) ([5]; HepG2 cells, real-time cell index, concentrations 0-250 μM)","effect on cell proliferation ([5]; concentrations higher than 50 μM, all time-points)",induction of cell apoptosis [6],IC50 ([7]; 37°C),IC50 ([7]; 40°C (high fever-like))
aprotinin,picomolar levels,,,,,,,,,,,,,
SMWSGMWRRKLKKLRNALKKKLKGE [Ltc 1],,8.3 ± 1.2 µM,7.6 ± 2.7 µM,6.8 ± 2.5 µM,80%,approximately 52.51 ± 3.6 μM,moderate haemolytic activity,insignificant,significantly decreased,25 µM,toxic to the cells,induces cellular changes that lead to cell apoptosis,12.7 ± 3.2 µM,6.58 ± 4.1 µM
